From ChEMBL document CHEMBL1641394, “Terpenoids from the aerial parts of Parasenecio deltophylla” (J Nat Prod, 2010)

Key:
[1] = Antioxidant activity assessed as ABTS radical scavenging activity by decolorization assay; assay type: functional
[2] = test system: Radical scavenging activity; experiment: Antioxidant activity assessed as DPPH radical scavenging activity; assay type: functional
[3] = test system: HL-60; experiment: Cytotoxicity against human HL60 by MTT assay; assay type: functional, cell-based
[4] = test system: HepG2; experiment: Cytotoxicity against human HepG2 by MTT assay; assay type: functional, cell-based

Compound | IC50 [1] [µM] | IC50 [2] [µM] | IC50 [3] [µM] | IC50 [4] [µM]
C/C=C(/C)C(=O)OCc1c(C(C)=O)c(O)c(OC)c2c1[C@@H](C)CC=C2 | > 200 | > 200 |  | 
C/C=C(/C)C(=O)OCc1c(C(C)=O)c(O)c(OC)c2c1[C@@H](C)[C@@H](O)C=C2 | > 200 | > 200 |  | 
C/C=C(/C)C(=O)OCc1c(C(C)=O)c(O)c(OC)c2c1[C@@H](C)[C@@H]1O[C@@H]1[C@H]2O | > 200 | > 200 |  | 
C/C=C(/C)C(=O)OCc1c2c(c(OC)c3occ(C)c13)C(=O)[C@H]1O[C@H]1[C@@H]2C | > 200 | > 200 | 49.8 | 27.8
CCCCCCCCCCCCCCCC(=O)O[C@H]1CC(C)(C)C2=CC(=O)O[C@]2(C)C1 | > 200 | > 200 | 47.5 | 
CO[C@@]12[C@H](COC(N)=O)C3=C(C(=O)C(C)=C(N)C3=O)N1C[C@@H]1N[C@@H]12 [MITOMYCIN] |  |  | 1.5 | 5.4
Cc1c(C)c2c(c(C)c1O)CCC(C)(C(=O)O)O2 (configuration not stated) [TROLOX] | 13.2 | 13.2 |  | 
